Test results taken from article PMC11969024, “Development of chemokine network inhibitors using combinatorial saturation mutagenesis” (Communications Biology, 2025).
Ends that are not written are not given here.

Tests used:
THP1 cells = test: Chemokine dose-response, THP1 cell migration; assay type: cell-based, human; conditions: mean of biological replicates (2-7); for Mean pEC80: 3-parameter log-logistic fit, maximum fixed at 100%
Procedure: (§1) Cell lines were confirmed mycoplasma free by monthly testing using a MycoAlert^TM kit (LT07-118, Lonza) following the manufacturer’s instructions. THP1 cells: THP1 cells (ECACC 88081201, a human monocyte leukemia cell line[51]) were obtained from ECACC and were cultured in T175 flasks at 0.3-1 × 10^6 cells/mL in Roswell Park Memorial Institute (RPMI) 1640 medium (R0883, Sigma) with 10% FBS (F9665, Sigma) and 5mM L-glutamine (G7513, Sigma), 37 °C, 5% CO2. J:CXCR1 cells: The J:CXCR1 cell line was cultured in the same manner as THP1 cells at 0.15-1 × 10^6 cells per mL[37]. Activated T-cells: T-cells were isolated, activated and expanded as follows. Briefly, density gradient centrifugation using Lymphoprep^TM density gradient medium (07801, […] Technologies) and a SepMate^TM isolation tube (85450, […] Technologies) was used to isolate peripheral blood mononuclear cells from human leukocyte cones. Two rounds of purification using a human CD8 + T-cell isolation kit (480011, BioLegend) were used to isolate CD8 + T-cells from peripheral blood mononuclear cells. Activation of CD8 + T-cells was performed in ImmunoCult^TM-XF T-cell expansion medium (10982, […] Technologies) with an anti-CD3/anti-CD28 T-cell activator at 25 μl/ml (10991, […] Technologies), supplemented with 10 ng/ml recombinant human IL-2 (200-02, PeproTech) with 1% penicillin/streptomycin. T-cells were passaged every 2–3 days in TexMACS medium (130-097-196, Miltenyi Biotec), supplemented with 10 ng/ml human IL-2 (200-05-250, Peprotech) and incubated at 37 °C in 5% CO2. CD8 + T-cells were frozen at day 10-13 after initial activation, at 20×10^6 cell/ml in TexMACS medium supplemented with 10% DMSO (D2650, Sigma) in liquid nitrogen. Activated CD8^+ T-cells were recovered in TexMACs medium at 0.3 × 10^6 cell/ml and incubated at 37 °C in 5% CO2, 24 h prior to use. For buffy coat experiments a mixture of primary human monocytes, granulocytes and lymphocytes was isolated from human buffy coat. Briefly, RBCs were sedimented in HetaSep (07806, […] Technologies) with 1 mL of HetaSep per 5 mL of blood for 15 min at 37 °C. The buffy coat layer was collected from the top and washed in 50 ml MACS buffer (PBS (P4417, Sigma), 0.5% BSA (A7030, Sigma), 0.075% EDTA (E5134, Sigma), pH 7.2), by centrifugation at 2000 g for 10 min at room temperature. The pellet was resuspended in 10 mL of 1x RBC lysis solution (130-094-183, Miltenyi Biotec) and lysed for 10 min at room temperature. The cells were then washed in MACS buffer twice as above. The final pellet was resuspended in 1 mL of MACS buffer per 5 mL of initial blood volume and counted using cell size FSC-H/SSC-H parameters with gate settings previously defined by immunostaining (see below). The leukocytes were then resuspended in assay buffer for cell migration and used within 30 min of isolation.
(§2) Cell counts were determined using an ATTUNE NxT Flow Cytometer with Cytkick autosampler (ThermoFisher), based on cell size parameters FSC-H/SSC-H, with previously defined gate settings. FSC-H/SSC-H gate settings for primary white blood cells from buffy coats were determined using flow cytometry to establish the granulocyte, monocyte and lymphocyte populations (Supplementary Fig. 13). Briefly, cells were labelled with anti-CD3 (Miltenyi Biotec, 130-113-135) to identify the T cell population, anti-CD14 (Miltenyi Biotec, 130-110-578) to identify the monocyte population, and with anti-CD16 (Miltenyi Biotec, 130-113-951) to identify the granulocyte population. Negative control cells were labelled with anti-human IgG1 (Miltenyi Biotec, 130-113-434). All antibodies were allophycocyanin (APC) conjugated. 100,000 white blood cells were added to Eppendorf tubes and centrifuged at 300 g for 3 min. The supernatant was discarded, and the cells resuspended in 98 µL of MACS buffer (1× PBS, 2 mM EDTA and 0.5% BSA, sterile filtered). 2 µl of antibody was added to the cells. […]

activated T-cells (ATC) = test: Chemokine dose-response, activated T-cell (ATC) migration; assay type: cell-based, human; conditions: mean of biological replicates (3-6)
Procedure: as §1, §2

[1] = lyophilised peptide, data provided by the manufacturer, ref GenScript, cited from earlier work; for Solubility, Water: C-terminal amide
[2] = system: panel of 22 biotinylated chemokines; test: Saturation (NNK) mutagenesis phage-display selection against biotinylated chemokines, enrichment by NGS; assay type: binding, human; conditions: two-sided Dunnett's test; for log2E compared to parental HD2, CXnC chemokines: 7 CXnC chemokines; for log2E compared to parental HD2, CC chemokines: 15 CC chemokines; for log2E compared to parental HD2, all chemokines: three selection rounds, 22 chemokines
From the text: 81-mer mutant oligonucleotides replacing NNK at each of the 16 peptide encoding residues were designed with the sequence arms 5’-[…], and […]-3’ at respective ends to enable amplification and cloning. Oligonucleotides (Genscript) were individually amplified and cloned into plasmid prSTOP4Nsi (described in[37]). prSTOP4Nsi was amplified using primers (Sigma): […]
Oligonucleotides were amplified using primers (Sigma): oligo_fwd: 5’-[…] and oligo_rev2: 5’-[…]. The PCR products were cloned into prSTOP4Nsi plasmid using NEB Builder HiFi Assembly (E5520, NEB) following instructions of the manufacturer. The vector pool was used to transform electrocompetent ElectroMAX™ DH5α-E™ cells (11319019, Invitrogen). Plasmid DNA was harvested by MaxiPrep (GeneJet Plasmid Maxiprep Kit (K0491, Thermo Scientific)). DNA was transformed into SS320 phage display electrocompetent cells (60512, Lucigen), following the manufacturer’s protocol. Following electroporation, cells were resuspended in 950 μL recovery media and transferred to 50 mL Falcon tubes. 100 μL 10^11 CFU/mL M13KO7 helper phage (N0315S, NEB) was added, and tubes shaken at 37 °C, 220 RPM, 1 h. 1 mL recovery culture was added to 2YT medium containing +50ug/mL carbenicillin (C9231, Sigma) and 25ug/mL kanamycin (K1377, Sigma), and grown overnight at 37 °C, 220 RPM. Phage was precipitated from culture supernatant by adding 22.5 mL of supernatant to 4.5 mL 20% PEG 8000 (89510, Sigma)/2.5 M NaCl (S9625, Sigma), incubating on ice for 30 min, and centrifuging at 12857 g, 4 °C, 10 min. The phage pellet was resuspended in 1 mL of PBT (PBS (P4417, Sigma), BSA (A7030, Sigma) 0.20%, Tween 20 (P1379, Sigma) 0.05%). Undissolved particulate matter was removed by centrifugation at 15871 g, 4 °C, 10 min. Glycerol (G5516, Sigma, 10% final (v/v) was added, and aliquots stored at −80 °C. A schematic of phage-display library construction is provided in Supplementary Fig. 12.
Phage display screening was performed as described. Experiments were performed in 96-well plates (Greiner Bio-One, 655180). Biotinylated chemokines or complement C5A (1μg, Almac or Protein Foundry) were incubated overnight at 4 °C with shaking at 250 RPM with 5μl streptavidin-coated magnetic beads (Dynabeads™ M-280 Streptavidin, Invitrogen, 11205D) in 100 μl PBS. Chemokine-bound beads were blocked for two hours in 200μl blocking buffer (PBS (phosphate-buffered saline, Sigma, P4417) + 0.2% BSA (bovine serum albumin, Sigma, A7030) with shaking at 250 RPM. Phage library (100μL, 10^10 CFU/mL) was bound to blocked beads for two hours at room temperature with shaking at 250 RPM. Beads were washed 15 times with PT buffer (PBS + 0.05% Tween 20 (Sigma, P1379)) to remove unbound phage then transferred to a fresh plate. Beads were incubated with 100μL phage-resistant Omnimax E. coli (Invitrogen, A10469) at optical density (OD600) 0.6-0.8, shaken at 37 °C for 30 min. Following this 10 µL M13K07 helper phage (NEB, N0315S, final concentration 10^10 CFU/mL) was added and shaken at 37 °C for 45 min. Cells were transferred to 1 mL 2YT medium (at pH7, MP Biomedicals™, 113012031, supplemented with 150 µg/mL carbenicillin (Sigma, C9231) and 75 µg/mL kanamycin (Sigma, K1377) in a 96-deep well block with V-bottom (Corning, CLS3960) and grown with overnight shaking at 37 °C, 200 RPM. Plates were either centrifuged at 2000g (4 °C, 30 min) or transferred to screw cap tubes and pelleted by centrifugation at 4000 g and 4 °C for 15 min. 540 µL of supernatant was transferred to a new 96-deep well plate, 60 µL of 10×PBT (10×PBS + 2% BSA + 0.5% Tween 20) added and stored at 4 °C for subsequent rounds. Phage display was carried out for three rounds. A schematic of phage-display library screening is provided in Supplementary Fig. 12.
We amplified inserts from the input library and from the selected phage population directly from phage by PCR using primers: 5’-[…] and 5’-[…] (Life Technologies). […]

[3] = system: activated CD8+T-cells (ATC); test: Activated T-cell (ATC) migration induced by individual chemokines, inhibition by peptide; assay type: cell-based, human; conditions: peptide 10 uM; chemokines at EC80; Dunnett's test
Procedure: as §1, §2

Substance: CCL2: human chemokine, Peprotech 300-04
- Mean pEC80 (THP1 cells): 8.35 [M]
- Mean pEC50 (THP1 cells): 8.73 [M]

Substance: CCL3: human chemokine, Peprotech 300-08
- Mean pEC80 (THP1 cells): 9.31 [M]
- Mean pEC50 (THP1 cells): 9.64 [M]

Substance: CCL5: human chemokine, Peprotech 300-06
- Mean pEC80 (THP1 cells): 8.36 [M]
- Mean pEC50 (THP1 cells): 8.65 [M]

Substance: CCL7: human chemokine, Peprotech 300-17
- Mean pEC80 (THP1 cells): 8.02 [M]
- Mean pEC50 (THP1 cells): 8.37 [M]

Substance: CCL19: human chemokine, Peprotech 300-29B
- Mean pEC50 (activated T-cells (ATC)): 7.91 [M]
- Mean pEC80 (activated T-cells (ATC)): 7.64 [M]

Substance: CXCL9: human chemokine, Peprotech 300-26
- Mean pEC50 (activated T-cells (ATC)): 7.40 [M]
- Mean pEC80 (activated T-cells (ATC)): 7.22 [M]

Substance: CXCL10: human chemokine, Peprotech 300-12
- Mean pEC50 (activated T-cells (ATC)): 7.87 [M]
- Mean pEC80 (activated T-cells (ATC)): 7.50 [M]

Substance: CXCL11: human chemokine, Peprotech 300-46
- Mean pEC50 (activated T-cells (ATC)): 8.25 [M]
- Mean pEC80 (activated T-cells (ATC)): 7.99 [M]

Substance: CXCL12: human chemokine, Peprotech 300-28A
- Mean pEC50 (activated T-cells (ATC)): 8.93 [M]
- Mean pEC80 (activated T-cells (ATC)): 8.54 [M]

Substance: DDDDWWDYAPLTCYFD [HD2CM526]
- Solubility, Water [1]: Insoluble
- Solubility, DMSO [1]: Soluble
- Solubility, PBS [1]: Insoluble

Substance: DEDDWDAYAPIWCYFT-NH2 [HD2CM304]
- Solubility, Water [1]: Insoluble
- Solubility, DMSO [1]: Soluble
- Solubility, PBS [1]: Insoluble

Substance: DEDDWDDYAPITCYFT-NH2 [HD2CM307]
- Solubility, Water [1]: Insoluble
- Solubility, DMSO [1]: Insoluble
- Solubility, HCOOH [1]: Soluble
- Solubility, PBS [1]: Insoluble

Substance: EEDDYDAYAPLTCYFT [HD2T6D, HD2 point mutant]
- log2E compared to parental HD2, CXnC chemokines [2]: significant improvement
- log2E compared to parental HD2, CC chemokines [2]: significant improvement
- log2E compared to parental HD2, all chemokines [2]: significantly improved

Substance: EEDDYTAYAPITCYFT [HD2L11I, HD2 point mutant]
- inhibition of CCL19, CCL21, CXCL9, and CXCL11-induced migration of ATCs compared to parental HD2 [3]: significant improvement in inhibition
- log2E compared to parental HD2, CC chemokines [2]: significant improvement
- log2E compared to parental HD2, all chemokines [2]: significantly improved

Substance: EEDDYTAYAPLTCYFT-NH2 [HD2]
- Solubility, Water [1]: Insoluble
- Solubility, DMSO [1]: Soluble
- Solubility, PBS [1]: Insoluble

Substance: EEDDYTDYAPLTCYFT [HD2A7D, HD2 point mutant]
- log2E compared to parental HD2, CXnC chemokines [2]: significant improvement
- log2E compared to parental HD2, all chemokines [2]: significantly improved

Substance: TLETDTFYECPDAYAY [HD2SCR, reference compound]
- Solubility, Water [1]: Insoluble
- Solubility, DMSO [1]: Soluble
- Solubility, PBS [1]: Insoluble
